Several values for one entry are separate records, joined by “and”; a condition that tells them apart may be missing. Equal entries are not always repeated. Entries after “also recorded” stand apart in the source; their conditions may differ.
Legend:
[1] = Single dose toxicity study, i.v. occidiofungin in 1.5% hydroxy propyl-beta-cyclodextrin/PBS; format: in vivo, mice
Protocol: Female BALB/c mice at age of 6-8 weeks old were used. These mice were purchased from Harlan and allowed to acclimate at least 2 weeks after arrival. They were housed on a 12 hour light-dark cycle in a temperature and humidity controlled animal facility that is accredited by the American Association for Accreditation of Laboratory Animal Care. Animal care and use were in accord with NIH Guidelines and Texas A&M University regulations. Protocols used for the mice models were done in accordance to the methods reported by Luster et al. (See Reference 12).
Occidiofungin was produced as previously described and aliquoted and lyophilized into 100 μg quantities in 1.8 mL centrifuge tubes. […] Mice (5 mice per group) were given occidiofungin dissolved in 1.5% hydroxy propyl-beta-cylcodextrin suspended in phosphate buffered saline (PBS). […] For the experiments, occidiofungin was administered by intravenous (i.v.) injection into the tail vein at a single dose at 5 mg/kg of body weight. The excipient control in each experiment matched the vehicle. Body weight and clinical signs (movement, posture, skin lesions, appearance of fur indicating normal grooming, and behaviors) were recorded following administration at one, four, eight, sixteen, and twenty-four hours. Necropsies were performed at 24 hours following administration of occidiofungin.
Blood and tissue samples from animals dosed at 5 mg/kg of body weight with occidiofungin in 1.5% hydroxy propyl-beta-cylcodextrin suspended in PBS were taken 24 hours following excipient or drug administration. Mice were anesthetized with isofluorane. Blood was then taken from the retroorbital plexus or heart puncture for serum biochemistry assays (alkaline phosphatase, alanine aminotransferase, aspartate aminotransferase, albumin, and blood urea nitrogen) and hematology (white blood cell count and white blood cell differentiation). Body weight was measured immediately before treatment and 24 hours later before the mice were fully anesthetized and fixed in 10% neutral buffered formalin. Histological examination was performed on a portion of each organ by using routine paraffin embedding technique and staining with hematoxylin and eosin (H & E) (See Reference 14). All the sections were examined under light microscopy for pathological changes by a co-author of this paper, who is a board certified veterinary pathologist.

OVCAR8 = test: In vitro toxicity screening (CellTiter-Blue cell viability, 48 hours); format: cell-based, human
Excerpt: (§1) Cancer cell lines, OVCAR8 (Center for Cancer Research (OVAR.8; Sample ID 25)), SW1088 (ATCC-HTB-12), and Toledo (ATCC CRL-2631), and normal human neonatal dermal fibroblasts cell line (ATCC-PCS-201-010) were passaged and prepped as previously described (See References 15-17). OVCAR8, SW1088, and Toledo2631 are ovarian, brain, and B-cell lymphoma cancer cell lines, respectively. This panel of cell lines was chosen based, in part, on their being from very different cancer types in order to discern whether occidiofungin would have a broad spectrum activity towards cancer cell lines of vastly different parental organ/cell types. OVCAR8 cells are widely used in the field of cancer therapeutic research as a panel representative of ovarian cancer in screening experiments for identifying both ovarian-specific and non-specific (i.e., anti-neoplastic activity on multiple cancer cell types) therapeutic agents (See References 28-30). Similarly, SW1088 cells are widely used in the field of cancer therapeutic research as a panel representative of glioma (the most common brain cancer) in screening experiments for identifying both glioma-specific and non-specific therapeutic agents (See References 31-32). Toledo 2631 cells are derived from lymphoma cells, and are used in the field of cancer therapeutic research for identifying lymphoma-specific and non-specific therapeutic agents (See, e.g., Reference 33). […] Cell counts per plate were calculated to be approximately 50,000 cells/mL. A 10× stock solution of occidiofungin was prepared at 65 μM concentration in 10% dimethyl sulfoxide (DMSO). Two-fold serial dilutions on a 96 well plate were set up in triplicate with starting concentration of 6.5 μM and a final concentration of 3 nM. Bortezomib was used as a comparator for toxicity against human fibroblast and was serially diluted two-fold starting at a concentration of 5 μM and ending at 2.5 nM. Bortezomib is used clinically against myeloma and lymphoma cancers in patients refractory against other chemotherapeutics (See References 18, 19). Furthermore, bortezomib has shown efficacy against a variety of solid tumors and cancer cell lines, making this an appropriate comparison molecule in the panel of cell lines chosen (See References 34-35). The plates were then incubated at 37° C. in 5% CO2 for 48 hours. After 48 hours, cell viability was monitored using CellTiter-Blue (Promega) cell viability assay by measuring the fluorescence emission of a redox activated dye (579EX/584EM) using a POLARstar Omega microplate reader (BMG Labtech).

SW1088 = test: as above; format: cell-based, human; conditions: SW1088 astrocytoma brain cancer cell line, mean of three independent experiments, read-out: TC50 (the source's name)
Excerpt: as §1

Toledo (ATCC CRL-2631) = test: as above; format: cell-based, human; conditions: Toledo CRL-2631 B-cell lymphoma cell line, mean of three independent experiments, read-out: TC50 (the source's name)
Excerpt: as §1

[2] = system: normal human neonatal dermal fibroblasts cell line; test: as above; format: cell-based
Excerpt: as §1

[3] = single IV dose 5 mg/kg, 24 hours
[4] = single IV dose 5 mg/kg, 24 hours, mean, 5 mg/kg

occidiofungin
behavioral response at 1 hour and to a lesser extent at 4 hours post i.v. administration ([1]; 5 mg/kg i.v.): more lethargic than excipient treated mice and had ruffled fur | mice behavior by 8, 16, and 24 hour post injection ([1]; 5 mg/kg i.v.): appeared to be normal | histological examination of organ tissues ([1]; 5 mg/kg i.v., 24 hours, esophagus, stomach, small intestine, colon, liver, pancreas, spleen, kidneys, lungs, heart, brain): no histological abnormalities; also recorded: No observable differences | ratio of AST to ALT in all treated mice ([1]; 5 mg/kg i.v., 24 hours, ratio less than one indicative of liver damage): greater than one | average weight loss ([1]; single 5 mg/kg i.v. dose, 24 hours): 6.2% | Hematology: Lymphocytes % [1, 3]: 54 ± 15% | Hematology: Neutrophils % [1, 3]: 43 ± 14% | Hematology: Platelet estimate [1, 3]: 39 ± 21 xK/ul | Hematology: WBC estimate [1, 3]: 4750 ± 1225 | Serum Biochemistry: ALP [1, 3]: 99 ± 34 U/l | Serum Biochemistry: Albumin [1, 3]: 3.1 ± 0.6 g/dL | Serum Biochemistry: BUN [1, 3]: 29.6 ± 5 mg/dL | Weight Change % ([1]; single IV dose 5 mg/kg, 24 hours after administration, mean ± SD): −6.2 ± 9.9% | Serum Biochemistry: ALT (SGPT) [1, 4]: 521 U/l and 521 ± 652 U/l | Serum Biochemistry: AST (SGOT) [1, 4]: 765 U/l and 765 ± 692 U/l | toxicity observed in mice ([1]; single i.v. dose at 5 mg/kg): no significant toxicity | CC50 (OVCAR8; OVCAR8 ovarian cancer cell line, 48 hours, mean of three independent experiments, read-out: TC50 (the source's name)): 0.061 µM | activity against the cancer cell lines relative to what has been reported against Candida species (OVCAR8; cancer cell lines OVCAR8, SW1088, Toledo together): ten to twenty-fold higher | CC50 (SW1088): 0.068 µM | CC50 (Toledo (ATCC CRL-2631)): 0.07 µM | cancer cell lines relative to normal human primary dermal fibroblasts cell line ([2]; TC50 of OVCAR8, SW1088, Toledo vs fibroblasts): approximately eight-fold higher | CC50 ([2]; human fibroblast cell line, 48 hours, mean of three independent experiments, read-out: TC50 (the source's name)): 0.533 µM | activity relative to bortezomib against the human fibroblast cell line ([2]; occidiofungin vs bortezomib): approximately eight-fold higher

From US10265374B2, “Occidiofungin formations and uses thereof” (MISSISSIPPI STATE UNIVERSITY, priority 2014, dated 2019)
